Experimental data from the supplement of paper PMC10627819.

What was measured:
Conditions in all cases: main component drawn
[1] = test system: S. aureus DSM 20231; assay: Bliss interaction score (quartile over a dose matrix) (fitness difference); higher = more antagonism (negative = synergy)
Summary of the method: (§1)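 The Bliss score was calculated by subtracting the expected fitness, the product of single-drug values, from the observed fitness. OD595 at entry into stationary phase, over the plate's robust no-drug mean and capped at 1, served as the fitness readout. Single-drug values were inferred from combination data, and scores are summarised by quartiles across technical, biological and donor/recipient replicates.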

[2] = test system: B. subtilis 168; assay: as above
Summary of the method: as §1

[3] = test system: S. pneumoniae D39V; assay: as above
Summary of the method: as §1

[4] = test system: S. aureus Newman; assay: as above
Summary of the method: as §1

[5] = test system: B. subtilis 168; assay: fitness (endpoint OD595 vs no drug) (fraction); higher = more growth
Summary of the method: (§2)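 Growth medium was TSB, LB Lennox or CY, and plates were kept at 37 °C. Inoculation was at OD595 0.01 in 384-well plates, at 30 µl per well or 55 µl for S. pneumoniae. OD595 was monitored every 30 min for 14 h and background-subtracted using the first reading. Fitness is the optical density on entering stationary phase divided by the robust mean of no-drug controls, with values capped at 1.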

[6] = test system: S. pneumoniae D39V; assay: as above
Summary of the method: as §2

[7] = test system: S. aureus Newman; assay: as above
Summary of the method: as §2
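Throughout, for Bliss interaction score (quartile over a dose matrix): first quartile when negative (synergy) and third quartile when positive (antagonism).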

CNC(C)C1CCC(N)C(OC2C(N)CC(N)C(OC3OCC(C)(O)C(NC)C3O)C2O)O1 (centres undefined) [Gentamicin] + CN(N=O)C(=O)N[C@@H](C=O)[C@@H](O)[C@H](O)[C@H](O)CO [Streptozotocin]
Conditions | Bliss interaction score
[1] | -0.0423
[2] | -0.125
[3] | 0.0654
[4] | 0.0523

fitness
Conditions | partner 0.15 µg/mL | partner 0.3 µg/mL | partner 0.6 µg/mL | partner 1.2 µg/mL | partner 2.4 µg/mL | partner 4.8 µg/mL
[5], first compound 0.0625 µg/mL | 0.949 | 0.952 | 0.956 | – | – | –
[5], first compound 0.25 µg/mL | 0.161 | 0.164 | 0.12 | – | – | –
[6], first compound 2 µg/mL | – | – | – | 0.892 | 0.949 | 0.914
[6], first compound 4 µg/mL | – | – | – | 0.93 | 0.966 | 0.949
[6], first compound 8 µg/mL | – | – | – | 0.942 | 0.967 | 0.878
[7], first compound 0.5 µg/mL | 0.871 | 0.801 | 0.708 | – | – | –
[7], first compound 1 µg/mL | 0.888 | 0.844 | 0.724 | – | – | –
[7], first compound 2 µg/mL | 0.898 | 0.856 | 0.732 | – | – | –

fitness, [7], one replicate
Conditions | first compound 0.375 µg/mL | first compound 0.75 µg/mL | first compound 1.5 µg/mL
partner 0.15 µg/mL | 0.851 | 0.848 | 0.777
partner 0.3 µg/mL | 0.717 | 0.687 | 0.706
partner 0.6 µg/mL | 0.534 | 0.585 | 0.561

CNC(C)C1CCC(N)C(OC2C(N)CC(N)C(OC3OCC(C)(O)C(NC)C3O)C2O)O1 (centres undefined) [Gentamicin] + CN[C@@H]1[C@H](O)[C@H](NC)[C@H]2O[C@@]3(O)C(=O)C[C@@H](C)O[C@H]3O[C@@H]2[C@H]1O [Spectinomycin]
Conditions | Bliss interaction score
[1] | 0.044
[2] | 0.0812
[3] | 0.0871
[4] | 0.0532

fitness
Conditions | partner 2 µg/mL | partner 4 µg/mL | partner 8 µg/mL | partner 16 µg/mL
[5], first compound 0.0625 µg/mL | 0.951 | 0.988 | 0.814 | –
[5], first compound 0.25 µg/mL | 0.325 | 0.148 | – | –
[6], first compound 2 µg/mL | – | 0.964 | 0.901 | 0.663
[6], first compound 4 µg/mL | – | 0.914 | 0.807 | 0.643
[6], first compound 8 µg/mL | – | 0.957 | 0.879 | 0.645
[7], first compound 0.375 µg/mL | – | 0.915 | 0.984 | 0.961
[7], first compound 0.5 µg/mL | – | 0.931 | 0.966 | 0.891
[7], first compound 0.75 µg/mL | – | 0.928 | ≥ 1 | 0.95
[7], first compound 1 µg/mL | – | 0.993 | 0.991 | 0.933
[7], first compound 1.5 µg/mL | – | 0.923 | ≥ 1 | 0.96
[7], first compound 2 µg/mL | – | ≥ 1 | ≥ 1 | –

fitness, [7], one replicate
Conditions | first compound 1 µg/mL | first compound 2 µg/mL | first compound 4 µg/mL
partner 16 µg/mL | – | – | 0.0712
partner 32 µg/mL | 0.507 | 0.101 | 0.0361
partner 64 µg/mL | 0.0654 | 0.0856 | 0.0746
